What was measured:
[1] = tested on: Human skin fibroblasts; experiment: Experiment 3: restoration of UV irradiation-reduced cellular activity; type: cell-based; conditions: pre-irradiation 400 mJ/cm^2 without substance, then UV 0-200 mJ/cm^2 through 0.4% or 2% C-phycocyanin; FIG. 5
Protocol: (§1) 1. Human skin fibroblasts (purchased from Kurabo) and human skin keratinocytes (purchased from Kurabo or PromoCell) were used. A cell suspension (1 mL) stored with liquid nitrogen was placed in a hot water bath (37° C.) and thawed until small ice pellets remained, and then diluted with 9 mL of warm medium. 2. The diluted suspension was gently mixed and transferred to a T75 flask, and incubated overnight at 37° C. 3. On the following day, the medium was exchanged with 10 mL of fresh medium. 4. The medium was periodically exchanged (once every 2 days for fibroblasts, or once every 2 to 3 days for keratinocytes), while continuing growth of the cells. During this time, a microscope was used to observe the cells and to confirm that the cells had proliferated with the proper form. 5. Once the cells reached approximately 80% confluence, they were subcultured. Subculturing of the cells was carried out by rinsing once in 10 mL of warm PBS, after which 5 mL of warm trypsin was added to the T75 flask to cover the bottom of the flask with the trypsin solution, and the mixture was suctioned after standing for 1 minute at room temperature. 6. The flask was set in an oven at 37° C. for 2 minutes (maximum) for fibroblasts and 7 minutes (maximum) for keratinocytes. A microscope was used to observe the cells, confirming that they were small and elliptical. 7. […]

[2] = tested on: Human skin fibroblasts; experiment: Experiment 2: cellular activity at different C-phycocyanin concentrations and UV doses; type: cell-based; conditions: UV 0, 10, 25, 50, 75 and 100 mJ/cm^2, FIG. 3
Protocol: as §1

**Q.** Which results are given for C-phycocyanin?
**A.** cellular activity of cells with previously lowered activity [1]: cellular activity was restored; cellular activity (relative fluorescence intensity) ([2]; 0.4% C-phycocyanin): reduction in cellular activity was inhibited even under UV irradiation; cellular activity (relative fluorescence intensity) ([2]; 2% C-phycocyanin): accelerated cellular activity even above the level with no UV irradiation

— patent publication US20220175638A1, “CELL ACTIVATOR” (Shiseido Company, Ltd., priority 2019, published 2022)
